Residues, ends and D or L forms follow the SMILES beside them.
Tests used:
Rat L6 myotubes = assay: Rate of glucose uptake into muscle cells; format: cell-based; details: 1 mM dipeptide, 3 hours, then 8 mM 2-deoxyglucose 10 minutes; average ± SD; control 1.21 ± 0.07
Protocol: Rat L6 myotubes were cultured in an Eagle medium containing 10% bovine serum (α-MEM) in a Petri dish coated with type 1 collagen in 5% CO2/95% O2. The cells were recovered by trypsin treatment in a usual manner and seeded at a density of 50,000 cells/well on a 48-well plate coated with type 1 collagen, and cultured for 3 days to make the cells confluent. After the medium was removed, 500 μL of an Eagle medium containing 2% bovine serum (α-MEM) was added to each well, and then the cells were cultured for 5 days thereby inducing differentiation. Each well was washed with 500 μL KRH buffer (136 mM NaCl, 4.7 mM KCl, 1.25 mM CaCl2, 1.25 mM MgSO4.7H2O, 20 mM Hepes, 1 mg/mL BSA, pH 7.4) carefully such that the cells were not detached. Then, […] KRH buffer containing 1 mM Ile-Leu, Ile-Trp, Ala-Leu, Val-Leu, Gly-Leu, Asp-Leu, Lys-Ile, Leu-Leu, Ile-Ile, Leu-Ile, Ile-Asn, Leu-Ala, Leu-Glu, Leu-Val or Ile-Val (Kokusan Chemical Co., Ltd.) was added to each well and reacted for 3 hours with the cells. Thereafter, the KRH buffer was removed, and […] buffer containing 8 mM 2-deoxyglucose was added to each well and reacted for accurately 10 minutes with for the cells. The reaction was terminated with […] 0.1 N NaOH, followed by neutralization with an equal volume of 0.1 N HCl, and then the amount of 2-deoxyglucose 6-phosphate in the cells was quantified by an enzymatic method to determine the rate of glucose uptake.

[1] = test system: isolated epitrochlearis muscles; assay: Rate of glucose uptake into isolated muscles; format: cell-based, Wister rats; details: 1 mM dipeptide, 30 min at 30° C., then 8 mM 2-deoxyglucose 20 min; average ± SD; control 0.95 ± 0.10
Protocol: Epitrochlearis muscles were excised from male Wister rats (each weighing 120 g) (16 rats) under pentobarbital anesthesia carefully so as not to hurt the epitrochlearis muscles. The epitrochlearis muscles were incubated at 35° C. for 1 hour in KRH buffer (136 mM NaCl, 4.7 mM KCl, 1.25 mM CaCl2, 1.25 mM MgSO4.7H2O, 20 mM Hepes, 1 mg/mL BSA, pH 7.4; referred to hereinafter as KRH buffer) containing 0.1% bovine serum albumin (BSA), 8 mM glucose and 32 mM mannitol, in 5% CO2/95% O2. Thereafter, the epitrochlearis muscles were removed and incubated (8 samples per group) at 30° C. for 30 minutes in KRH buffer containing 0.1% BSA, 40 mM mannitol, and 1 mM Ile-Leu (Kokusan Chemical Co., Ltd.), 1 mM Ile-Trp (Kokusan Chemical Co., Ltd.), or the milk whey protein hydrolysate containing 1 mM leucine in terms of amino acid, produced in Production Example 1, in 5% CO2/95% O2. Then, the epitrochlearis muscles were removed and incubated at 30° C. for accurately 20 minutes in KRH buffer containing 0.1% BSA, 32 mM mannitol and 8 mM 2-deoxyglucose, in 5% CO2/95% O2. […] Thereafter, the frozen epitrochlearis muscles were homogenized in 0.3 M perchloric acid aqueous solution, and after the resulting suspension was neutralized, the amount of 2-deoxyglucose-6-phosphate in the muscles was quantified by an enzymatic method to determine the rate of glucose uptake.

Wister rats = assay: Oral glucose tolerance test; format: in vivo; details: 0.1 g/kg BW oral with glucose 2.0 g/kg BW
Protocol: Male Wister rats each weighing about 360 g (6 rats per group) were used. The rats were fasted for 18 hours and then administered with 30% glucose aqueous solution in a dose of 2.0 g/kg body weight (BW). […] After 30, 60, 90, 120 and 180 minutes, blood was collected from a rat tail vein and measured for its blood glucose level with Diasensor (manufactured by ARKRAY, Inc.).

[2] = test system: isolated epitrochlearis muscles; assay: Influence of PI3K inhibitor and GLUT-4 inhibitor on the rate of glucose uptake into isolated muscles; format: cell-based, Wister rats; details: 1 mM Ile-Leu alone; average ± SD; control 0.95 ± 0.10
Protocol: Epitrochlearis muscles were excised from male Wister rats (each weighing 120 g) (8 samples per group) under pentobarbital anesthesia carefully so as not to hurt the epitrochlearis muscles. The epitrochlearis muscles were incubated at 35° C. for 1 hour in KRH buffer containing 0.1% BSA, 8 mM glucose and 32 mM mannitol, in 5% CO2/95% O2. Thereafter, the epitrochlearis muscles were removed and incubated at 30° C. for 30 minutes in KRH buffer containing 0.1% BSA, 40 mM mannitol, and 1 mM Ile-Leu (Kokusan Chemical Co., Ltd.), 1 mM Ile-Leu+10 μM LY294002 (Sigma) or 1 mM Ile-Leu+70 μM cytochalasin B (Sigma) in 5% CO2/95% O2. Then, the epitrochlearis muscles were removed and incubated at 30° C. for accurately 20 minutes in KRH buffer containing 0.1% BSA, 32 mM mannitol and 8 mM 2-deoxyglucose, in 5% CO2/95% O2. Immediately after incubation for accurately 20 minutes, the epitrochlearis muscles were frozen with liquid nitrogen. Thereafter, the frozen epitrochlearis muscles were homogenized in 0.3 M perchloric acid aqueous solution, and after the resulting suspension was neutralized, the amount of 2-deoxyglucose 6-phosphate in the muscles was quantified by an enzymatic method to determine the rate of glucose uptake.

Compound	Rate of glucose uptake into muscle cells (Rat L6 myotubes)	further results
Gly-Leu	1.81 ± 0.04 nmol/min/well	–
Leu-Ile	1.73 ± 0.04 nmol/min/well	–
Ala-Leu	1.91 ± 0.07 nmol/min/well	–
Ile-Val	1.80 ± 0.07 nmol/min/well	–
Lys-Ile	2.34 ± 0.06 nmol/min/well	–
Leu-Leu	1.75 ± 0.05 nmol/min/well	–
Leu-Ala	2.09 ± 0.08 nmol/min/well	–
CC[C@H](C)[C@H](N)C(=O)N[C@@H](CC(C)C)C(=O)O [Ile-Leu, Isoleucyl leucine] (H-Ile-Leu-OH)	1.61 ± 0.05 nmol/min/well	Rate of glucose uptake into isolated skeletal muscles [1]: 1.88 ± 0.40 μmol/min/g muscle; Blood glucose level (change) (Wister rats; 0 minute, fasted rats, average ± SD): 0 ± 0 mg/100 mL; Blood glucose level (change) (Wister rats; 30 minutes, glucose alone 62 ± 4): 44 ± 8 mg/100 mL; Blood glucose level (change) (Wister rats; 60 minutes, glucose alone 61 ± 4): 57 ± 7 mg/100 mL; Blood glucose level (change) (Wister rats; 90 minutes, glucose alone 57 ± 4): 35 ± 4 mg/100 mL; Blood glucose level (change) (Wister rats; 120 minutes, glucose alone 27 ± 6): 19 ± 3 mg/100 mL; Blood glucose level (change) (Wister rats; 180 minutes, glucose alone 5 ± 1): 1 ± 3 mg/100 mL; Rate of glucose uptake into isolated skeletal muscles [2]: 1.88 ± 0.40 μmol/min/g muscle
Ile-Ile	1.88 ± 0.05 nmol/min/well	–
Leu-Val	1.74 ± 0.06 nmol/min/well	–
Val-Leu	1.76 ± 0.07 nmol/min/well	–
Ile-Trp	1.91 ± 0.06 nmol/min/well	Rate of glucose uptake into isolated skeletal muscles [1]: 1.92 ± 0.31 μmol/min/g muscle
Leu-Glu	2.16 ± 0.05 nmol/min/well	–
Asp-Leu	1.81 ± 0.50 nmol/min/well	–
Ile-Asn	1.92 ± 0.06 nmol/min/well	–

From patent US8343531B2, “Composition containing peptide as active ingredient” (Meiji Co., Ltd., priority 2006, dated 2013)
